Laboratory results taken from ChEMBL document CHEMBL1201862, “PubChem BioAssay data set” (2004).
Calls of active or inactive are those of the source.

How the values were obtained:
[1] = target: T1, High affinity choline transporter 1 (Homo sapiens, UniProt Q9GZV3); assay: human choline transporter blockers, potency – cell-based, 5-point CRC, membrane potential dye, dose response (AID 504840); format: functional
T1 sequence (Q9GZV3 whole entry): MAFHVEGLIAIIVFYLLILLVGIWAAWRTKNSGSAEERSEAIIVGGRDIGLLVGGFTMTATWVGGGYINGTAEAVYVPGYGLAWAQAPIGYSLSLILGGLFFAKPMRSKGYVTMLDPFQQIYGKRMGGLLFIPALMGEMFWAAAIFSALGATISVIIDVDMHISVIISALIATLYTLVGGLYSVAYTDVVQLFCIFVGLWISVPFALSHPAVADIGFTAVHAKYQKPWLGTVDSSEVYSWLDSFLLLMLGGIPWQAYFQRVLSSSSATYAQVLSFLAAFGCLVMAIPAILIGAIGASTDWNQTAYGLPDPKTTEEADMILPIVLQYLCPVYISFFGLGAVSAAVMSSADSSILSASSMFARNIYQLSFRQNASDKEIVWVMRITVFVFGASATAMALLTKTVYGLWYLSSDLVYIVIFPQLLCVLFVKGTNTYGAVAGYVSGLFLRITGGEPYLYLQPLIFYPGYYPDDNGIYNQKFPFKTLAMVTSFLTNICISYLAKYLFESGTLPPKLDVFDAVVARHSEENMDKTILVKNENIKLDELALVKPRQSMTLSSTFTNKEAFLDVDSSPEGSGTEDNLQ

[2] = target: T1, High affinity choline transporter 1; assay: human choline transporter blockers, potency – cell-based, 10-point CRC, membrane potential dye, dose response (AID 588401); format: functional;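 also: membrane potential dye fluorescence of choline-evoked depolarization via CHT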
[3] = test system: Streptococcus sp. 'group A'; assay: Streptococcus pyogenes SK(-)GAS viability under kanamycin – luminescence, BacTiterGlo, confirmation, counter-screen for streptokinase expression inhibitor project, dose response (AID 1900); format: functional, organism-based
[4] = target: T2, Streptokinase A (Streptococcus pyogenes serotype M1, UniProt P10520); assay: viability-normalized secreted streptokinase activity reduction – plasminogen activation absorbance, OD405, dose response (AID 1914); format: functional, Streptococcus pyogenes M1 GAS;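 also: secreted streptokinase activity via plasminogen activation per viability signal from cell pellet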
T2 sequence (P10520 whole entry): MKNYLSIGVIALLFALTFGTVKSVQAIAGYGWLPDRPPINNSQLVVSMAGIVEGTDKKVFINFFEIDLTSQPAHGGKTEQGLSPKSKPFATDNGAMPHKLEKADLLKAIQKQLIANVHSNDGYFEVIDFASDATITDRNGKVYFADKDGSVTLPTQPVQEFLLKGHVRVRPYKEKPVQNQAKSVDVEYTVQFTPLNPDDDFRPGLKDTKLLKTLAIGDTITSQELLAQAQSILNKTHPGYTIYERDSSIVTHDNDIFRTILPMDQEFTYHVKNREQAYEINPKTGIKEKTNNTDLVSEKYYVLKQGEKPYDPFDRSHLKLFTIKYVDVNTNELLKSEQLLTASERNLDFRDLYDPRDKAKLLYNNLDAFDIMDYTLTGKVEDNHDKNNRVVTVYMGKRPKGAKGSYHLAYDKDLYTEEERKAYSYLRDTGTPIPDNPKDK

[5] = viability of PTEN-deleted HCT116 cells – cell-based, HCT116 PTEN knockout, dose response (AID 1047); format: functional;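 also: HCT116 colon tumor cells with PTEN knocked out; cells exposed to compound for 60 hours before readout; potency for loss of cell viability measured by luminescence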
[6] = target: T3, Sphingosine 1-phosphate receptor 4 (Homo sapiens, UniProt O95977); assay: Late stage fluorescence dose response cell-based screening assay for antagonists of the Sphingosine 1-Phosphate Receptor 4 (S1P4). [Related pubchem assays: 1524 (Confirmation screen (S1P4 antagonists).), 1510 (Primary screen (S1P4 antagonists).), 1853 (Summary AID (S1P4 antagonists).), 1692 (Dose response screen (S1P4 antagonists).)]; format: functional
T3 sequence (O95977 whole entry): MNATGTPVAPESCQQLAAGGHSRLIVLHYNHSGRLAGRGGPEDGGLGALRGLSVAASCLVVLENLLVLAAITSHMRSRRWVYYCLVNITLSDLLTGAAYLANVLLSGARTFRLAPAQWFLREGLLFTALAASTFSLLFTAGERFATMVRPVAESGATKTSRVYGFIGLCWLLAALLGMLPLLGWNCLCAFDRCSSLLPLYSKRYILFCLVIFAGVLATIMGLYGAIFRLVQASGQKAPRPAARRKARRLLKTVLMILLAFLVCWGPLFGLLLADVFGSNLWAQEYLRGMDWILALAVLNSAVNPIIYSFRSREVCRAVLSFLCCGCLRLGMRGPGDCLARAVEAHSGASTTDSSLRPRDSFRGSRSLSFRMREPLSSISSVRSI

[7] = viability of HCT116 lacking mutant beta-catenin – cell-based, human colon tumor, dose response (AID 1045); format: functional;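 also: HCT116 colon tumor cells with beta catenin knocked out; cells exposed to compound for 60 hours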
[8] = target: T3, Sphingosine 1-phosphate receptor 4; assay: Fluorescence dose response cell-based high throughput screening assay for antagonists of the Sphingosine 1-Phosphate Receptor 4 (S1P4). [Related pubchem assays: 1524 (Confirmation in triplicates.), 1510 (Primary screen.)]; format: functional
[9] = target: Sphingosine 1-phosphate receptor 1 (Homo sapiens, UniProt P21453); format: functional;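 also: Tango beta-arrestin reporter U2OS cells stimulated with S1P near its EC80; inhibitor potency meaning antagonism of receptor activation by the natural agonist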
[10] = test system: Streptococcus; assay: GAS UMAA2166 growth inhibition – luminescence, BacTiterGlo, counter-screen for streptokinase expression inhibitor project, dose response (AID 1915); format: functional, organism-based;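 also: potency for reduction of bacterial viability or growth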
[11] = Luminescence Cell-Based Dose Retest to Confirm Inhibitors of Cancer Stem Cells. [Related pubchem assays (depositor defined):AID2717, AID2721]; format: functional; conditions: Homo sapiens
[12] = target: T4, Replicative DNA helicase DnaB (Mycobacterium tuberculosis, UniProt P9WMR3); assay: DnaB intein splicing inhibitors, dose response, biochemical, cell-free fluorescence (AID 449749); format: functional
T4 sequence (P9WMR3 whole entry): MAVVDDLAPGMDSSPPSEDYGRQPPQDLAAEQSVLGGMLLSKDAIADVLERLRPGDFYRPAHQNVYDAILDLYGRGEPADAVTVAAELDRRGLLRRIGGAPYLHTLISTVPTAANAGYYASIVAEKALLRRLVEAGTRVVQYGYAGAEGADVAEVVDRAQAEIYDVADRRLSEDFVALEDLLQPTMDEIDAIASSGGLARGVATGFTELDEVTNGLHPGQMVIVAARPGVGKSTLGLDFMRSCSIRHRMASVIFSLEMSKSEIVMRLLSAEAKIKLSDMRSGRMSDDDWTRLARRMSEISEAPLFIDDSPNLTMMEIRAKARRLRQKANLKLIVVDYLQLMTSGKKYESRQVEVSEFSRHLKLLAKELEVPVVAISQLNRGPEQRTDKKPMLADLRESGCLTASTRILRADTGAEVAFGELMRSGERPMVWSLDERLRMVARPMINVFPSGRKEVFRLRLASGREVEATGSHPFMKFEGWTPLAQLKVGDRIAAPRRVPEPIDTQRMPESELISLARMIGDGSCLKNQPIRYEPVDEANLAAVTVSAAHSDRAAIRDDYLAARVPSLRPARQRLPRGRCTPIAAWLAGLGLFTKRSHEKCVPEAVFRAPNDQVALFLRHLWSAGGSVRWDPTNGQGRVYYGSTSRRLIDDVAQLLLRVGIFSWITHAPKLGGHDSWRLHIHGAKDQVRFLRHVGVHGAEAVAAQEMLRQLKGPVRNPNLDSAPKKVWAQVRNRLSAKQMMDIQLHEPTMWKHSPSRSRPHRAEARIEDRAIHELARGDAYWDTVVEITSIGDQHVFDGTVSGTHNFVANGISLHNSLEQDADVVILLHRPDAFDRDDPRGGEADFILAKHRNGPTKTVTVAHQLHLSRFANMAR

[13] = target: T5, Protein RecA (Mycobacterium tuberculosis, UniProt P9WHJ3); assay: Fluorescence Cell-Free Homogeneous Dose Retest to Identify Inhibitors of RecA-Intein Splicing Activity. [Related pubchem assays (depositor defined):AID2097, AID2223, AID489010, AID492950]; format: functional
T5 sequence (P9WHJ3 whole entry): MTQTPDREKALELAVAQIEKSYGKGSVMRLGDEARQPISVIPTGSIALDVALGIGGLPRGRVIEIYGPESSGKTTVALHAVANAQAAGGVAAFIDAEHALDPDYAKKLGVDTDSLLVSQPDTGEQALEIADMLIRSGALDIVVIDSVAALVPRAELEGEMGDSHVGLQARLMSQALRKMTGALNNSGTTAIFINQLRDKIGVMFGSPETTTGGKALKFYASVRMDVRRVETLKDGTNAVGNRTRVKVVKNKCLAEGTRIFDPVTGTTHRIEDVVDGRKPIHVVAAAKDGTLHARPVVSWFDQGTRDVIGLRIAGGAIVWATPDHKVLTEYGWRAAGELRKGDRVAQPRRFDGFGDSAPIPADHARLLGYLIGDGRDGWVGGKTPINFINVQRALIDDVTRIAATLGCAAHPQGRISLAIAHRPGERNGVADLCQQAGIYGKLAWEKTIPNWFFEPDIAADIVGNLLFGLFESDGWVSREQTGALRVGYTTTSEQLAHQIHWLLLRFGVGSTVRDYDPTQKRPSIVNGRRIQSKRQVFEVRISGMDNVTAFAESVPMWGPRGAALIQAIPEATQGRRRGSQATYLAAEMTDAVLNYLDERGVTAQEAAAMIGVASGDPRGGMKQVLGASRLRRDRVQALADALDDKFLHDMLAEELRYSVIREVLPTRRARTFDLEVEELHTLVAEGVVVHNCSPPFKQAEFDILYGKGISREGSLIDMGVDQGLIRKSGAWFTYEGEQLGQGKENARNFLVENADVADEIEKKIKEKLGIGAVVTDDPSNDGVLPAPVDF

[14] = target: Melanocortin receptor 4 (Homo sapiens, UniProt P32245); assay: inhibitors of MC4R cAMP signaling – cell-based, TR-FRET, biased antagonists, dose response (AID 602298); format: functional;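 also: antagonist potency against agonist-stimulated cAMP production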
[15] = cAMP pathway inhibition in counterscreen cell line – TR-FRET cAMP detection, counter-screen for MC4R biased antagonist project, dose response (AID 602305); format: functional, cell-based;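 also: U2OS cells stimulated with forskolin near its EC80 as the cAMP inducer; potency is for inhibition of forskolin-stimulated cAMP signaling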
[16] = target: Neuropeptides B/W receptor type 1 (Homo sapiens, UniProt P48145); assay: human NPBW1 receptor blockade, IC50 – cell-based, fluorescence, dose response, set 5, late-stage follow-up (AID 588566); format: functional
[17] = target: Melanin-concentrating hormone receptor 1 (Homo sapiens, UniProt Q99705); assay: Late-stage fluorescence-based counterscreen for antagonists of the G-protein coupled receptor 7 (GPR7): cell-based dose response assay to identify antagonists of the melanin-concentrating hormone receptor 1 (MCHR1) Set 5.; format: functional
Chain of Melanin-concentrating hormone receptor 1 (Q99705 whole entry): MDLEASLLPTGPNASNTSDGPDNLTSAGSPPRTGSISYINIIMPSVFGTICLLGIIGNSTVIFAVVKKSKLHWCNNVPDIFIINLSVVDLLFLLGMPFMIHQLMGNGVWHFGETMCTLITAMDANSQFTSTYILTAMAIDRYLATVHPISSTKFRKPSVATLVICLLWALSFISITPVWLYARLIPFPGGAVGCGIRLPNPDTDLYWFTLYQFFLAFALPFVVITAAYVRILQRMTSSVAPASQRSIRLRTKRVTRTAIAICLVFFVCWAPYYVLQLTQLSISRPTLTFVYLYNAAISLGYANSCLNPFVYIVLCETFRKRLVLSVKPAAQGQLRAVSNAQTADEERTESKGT

Chain of Sphingosine 1-phosphate receptor 1 (P21453 whole entry): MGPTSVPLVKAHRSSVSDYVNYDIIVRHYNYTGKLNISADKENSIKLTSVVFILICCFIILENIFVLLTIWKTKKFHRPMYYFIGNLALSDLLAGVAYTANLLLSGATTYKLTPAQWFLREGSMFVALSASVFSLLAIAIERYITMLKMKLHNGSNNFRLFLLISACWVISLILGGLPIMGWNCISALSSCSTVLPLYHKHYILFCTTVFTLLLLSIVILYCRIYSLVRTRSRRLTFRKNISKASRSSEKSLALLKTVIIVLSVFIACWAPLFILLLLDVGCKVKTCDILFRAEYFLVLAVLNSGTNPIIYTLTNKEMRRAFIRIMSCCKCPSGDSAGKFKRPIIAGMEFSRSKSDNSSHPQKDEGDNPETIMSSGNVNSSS
Chain of Neuropeptides B/W receptor type 1 (P48145 whole entry): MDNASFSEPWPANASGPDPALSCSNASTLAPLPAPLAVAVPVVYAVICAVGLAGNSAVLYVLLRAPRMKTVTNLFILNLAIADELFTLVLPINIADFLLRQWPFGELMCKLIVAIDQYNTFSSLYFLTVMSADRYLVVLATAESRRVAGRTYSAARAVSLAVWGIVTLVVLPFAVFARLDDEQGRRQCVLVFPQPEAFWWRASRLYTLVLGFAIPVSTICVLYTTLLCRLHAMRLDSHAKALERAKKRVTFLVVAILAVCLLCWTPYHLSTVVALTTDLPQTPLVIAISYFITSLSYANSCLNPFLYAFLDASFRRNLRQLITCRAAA
Chain of Melanocortin receptor 4 (P32245 whole entry): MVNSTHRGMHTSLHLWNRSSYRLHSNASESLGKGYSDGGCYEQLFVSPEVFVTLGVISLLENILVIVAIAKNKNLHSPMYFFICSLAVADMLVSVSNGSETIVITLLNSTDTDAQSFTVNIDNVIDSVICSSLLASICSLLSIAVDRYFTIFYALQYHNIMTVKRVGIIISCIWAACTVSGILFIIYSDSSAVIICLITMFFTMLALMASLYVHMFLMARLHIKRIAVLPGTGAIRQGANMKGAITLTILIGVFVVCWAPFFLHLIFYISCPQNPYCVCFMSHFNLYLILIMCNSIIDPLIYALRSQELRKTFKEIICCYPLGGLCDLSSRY

## Clc1cc(I)cc(Cl)c1N=C1NCCN1
[1]
  IC50: 1.12 µM (active)
[2]
  IC50: 0.843 µM (active)

## O=[N+]([O-])c1cc(S(=O)(=O)C(F)(F)F)ccc1Sc1nc2ccccc2[nH]1
[3]
  EC50: 5.93 µM (active)
[4]
  EC50: > 150 µM (not active)
[5]
  EC50: 7.22 µM (active)
[6]
  IC50: 0.77 µM (active)
[7]
  EC50: 6.72 µM (active)
[8]
  IC50: 1.29 µM (active)
[9]
  IC50: 34.3 µM (not active)
[10]
  EC50: 11.9 µM (active)
[11]
  AC50: 4.04 µM (active)
[12]
  AC50: 2.83 µM (active)
[13]
  EC50: 0.774 µM (active)
[14]
  IC50: 7.65 µM (active)
[15]
  IC50: > 64.6 µM (inactive)

## O=c1c(Oc2ccc3ccccc3c2)c(Cl)cnn1Cc1cccc2ccccc12
[16]
  IC50: > 20 µM (inactive)
[17]
  IC50: > 20 µM (inactive)
